Measurements: ChEMBL document CHEMBL1687876, “Quercetin reduces neutrophil recruitment induced by CXCL8, LTB4, and fMLP: inhibition of actin polymerization” (J Nat Prod, 2011)
Active and inactive are the calls of the source. The calls are words filed in the database; no cut-off is given here.

How the values were obtained:
Neutrophil [1] = test: Antiinflammatory activity in human neutrophil assessed as inhibition of LTB4-induced neutrophil chemoattraction 100 nM after 2 hrs by Boyden chamber v; type: functional, cell-based
Mus musculus [2] = test: Inhibition of LTB4-induced neutrophil recruitment in Swiss mouse at 30 mg/kg, sc administered pre-inflammatory stimulus after 6 hrs by Newbauer chamber using Romanowsky stain; type: functional, organism-based; design: dose 30 mg/kg
Mus musculus [3] = test: Inhibition of LTB4-induced neutrophil recruitment in Swiss mouse at 100 mg/kg, sc administered pre-inflammatory stimulus after 6 hrs by Newbauer chamber using Romanowsky stain; type: functional, organism-based; design: dose 100 mg/kg
Neutrophil [4] = test: Antiinflammatory activity in human neutrophil assessed as inhibition of fMLP-induced neutrophil chemoattraction 30 nM after 2 hrs by Boyden chamber v; type: functional, cell-based
Mus musculus [5] = test: Inhibition of CXCL5-induced neutrophil recruitment in Swiss mouse at 30 mg/kg, sc administered pre-inflammatory stimulus after 6 hrs by Newbauer chamber using Romanowsky stain; type: functional, organism-based; design: dose 30 mg/kg
Neutrophil [6] = test: Antiinflammatory activity in human neutrophil assessed as inhibition of fMLP-induced neutrophil chemoattraction 300 to 1000 nM after 2 hrs by Boyden chamber v; type: functional, cell-based
Neutrophil [7] = test: Antiinflammatory activity in human neutrophil assessed as inhibition of CXCL8-induced neutrophil chemoattraction 10 nM after 2 hrs by Boyden chamber v; type: functional, cell-based
Neutrophil [8] = test: Antiinflammatory activity in human neutrophil assessed as inhibition of LTB4-induced neutrophil chemoattraction 30 nM after 2 hrs by Boyden chamber v; type: functional, cell-based
Neutrophil [9] = test: Antiinflammatory activity in human neutrophil assessed as inhibition of CXCL8-induced neutrophil chemoattraction 30 nM after 2 hrs by Boyden chamber v; type: functional, cell-based
Neutrophil [10] = test: Antiinflammatory activity in human neutrophil assessed as inhibition of LTB4-induced neutrophil chemoattraction 300 to 1000 nM after 2 hrs by Boyden chamber v; type: functional, cell-based
Mus musculus [11] = test: Inhibition of CXCL5-induced neutrophil recruitment in Swiss mouse at 100 mg/kg, sc administered pre-inflammatory stimulus after 6 hrs by Newbauer chamber using Romanowsky stain; type: functional, organism-based; design: dose 100 mg/kg
Neutrophil [12] = test: Antiinflammatory activity in human neutrophil assessed as inhibition of fMLP-induced neutrophil chemoattraction 10 nM after 2 hrs by Boyden chamber v; type: functional, cell-based
Neutrophil [13] = test: Antiinflammatory activity in human neutrophil assessed as inhibition of LTB4-induced neutrophil chemoattraction 10 nM after 2 hrs by Boyden chamber v; type: functional, cell-based
Neutrophil [14] = test: Antiinflammatory activity in human neutrophil assessed as inhibition of CXCL8-induced neutrophil chemoattraction 100 nM after 2 hrs by Boyden chamber v; type: functional, cell-based
Neutrophil [15] = test: Inhibition of FLPR1 protein expression in human neutrophil at 100 nM after 30 mins by flow cytometry; type: functional, cell-based
Neutrophil [16] = test: Inhibition of CXCR2 protein expression in human neutrophil at 100 nM after 30 mins by flow cytometry; type: functional, cell-based
Neutrophil [17] = test: Inhibition of BLT1 protein expression in human neutrophil at 100 nM after 30 mins by flow cytometry; type: functional, cell-based
Mus musculus [18] = test: Inhibition of CXCL1-induced neutrophil recruitment in Swiss mouse at 300 mg/kg, sc administered pre-inflammatory stimulus after 6 hrs by Newbauer chamber using Romanowsky stain; type: functional, organism-based; design: dose 300 mg/kg
Mus musculus [19] = test: Inhibition of fMLP-induced neutrophil recruitment in Swiss mouse at 30 mg/kg, sc administered pre-inflammatory stimulus after 6 hrs by Newbauer chamber using Romanowsky stain; type: functional, organism-based; design: dose 30 mg/kg
Mus musculus [20] = test: Inhibition of fMLP-induced neutrophil recruitment in Swiss mouse at 100 mg/kg, sc administered pre-inflammatory stimulus after 6 hrs by Newbauer chamber using Romanowsky stain; type: functional, organism-based; design: dose 100 mg/kg
Mus musculus [21] = test: Inhibition of LTB4-induced neutrophil recruitment in Swiss mouse at 300 mg/kg, sc administered pre-inflammatory stimulus after 6 hrs by Newbauer chamber using Romanowsky stain; type: functional, organism-based; design: dose 300 mg/kg
Neutrophil [22] = test: Inhibition of CXCR1 protein expression in human neutrophil at 100 nM after 30 mins by flow cytometry; type: functional, cell-based
Neutrophil [23] = test: Inhibition of fMLP-induced actin polymerization in human neutrophil at 100 nM after 30 mins by DAPI staining based immunofluorescence; type: functional, cell-based
Neutrophil [24] = test: Antiinflammatory activity in human neutrophil assessed as inhibition of CXCL8-induced neutrophil chemoattraction 300 to 1000 nM after 2 hrs by Boyden chamber v; type: functional, cell-based
Neutrophil [25] = test: Inhibition of CXCL8-induced actin polymerization in human neutrophil at 100 nM after 30 mins by DAPI staining based immunofluorescence; type: functional, cell-based
Mus musculus [26] = test: Inhibition of CXCL1-induced neutrophil recruitment in Swiss mouse at 100 mg/kg, sc administered pre-inflammatory stimulus after 6 hrs by Newbauer chamber using Romanowsky stain; type: functional, organism-based; design: dose 100 mg/kg
Mus musculus [27] = test: Inhibition of CXCL5-induced neutrophil recruitment in Swiss mouse at 300 mg/kg, sc administered pre-inflammatory stimulus after 6 hrs by Newbauer chamber using Romanowsky stain; type: functional, organism-based; design: dose 300 mg/kg
Neutrophil [28] = test: Antiinflammatory activity in human neutrophil assessed as inhibition of fMLP-induced neutrophil chemoattraction 100 nM after 2 hrs by Boyden chamber v; type: functional, cell-based
Mus musculus [29] = test: Inhibition of CXCL1-induced neutrophil recruitment in Swiss mouse at 30 mg/kg, sc administered pre-inflammatory stimulus after 6 hrs by Newbauer chamber using Romanowsky stain; type: functional, organism-based; design: dose 30 mg/kg
Neutrophil [30] = test: Inhibition of LTB4-induced actin polymerization in human neutrophil at 100 nM after 30 mins by DAPI staining based immunofluorescence; type: functional, cell-based
Mus musculus [31] = test: Inhibition of fMLP-induced neutrophil recruitment in Swiss mouse at 300 mg/kg, sc administered pre-inflammatory stimulus after 6 hrs by Newbauer chamber using Romanowsky stain; type: functional, organism-based; design: dose 300 mg/kg

SMILES: O=c1c(O)c(-c2ccc(O)c(O)c2)oc2cc(O)cc(O)c12
- inhibition (Neutrophil [1]): Active
- inhibition (Mus musculus [2]): inactive
- inhibition (Mus musculus [3]): Active
- inhibition (Neutrophil [4]): Active
- inhibition (Mus musculus [5]): inactive
- inhibition (Neutrophil [6]): Active
- inhibition (Neutrophil [7]): Active
- inhibition (Neutrophil [8]): Active
- inhibition (Neutrophil [9]): Active
- inhibition (Neutrophil [10]): Active
- inhibition (Mus musculus [11]): Active
- inhibition (Neutrophil [12]): Active
- inhibition (Neutrophil [13]): Active
- inhibition (Neutrophil [14]): Active
- inhibition (Neutrophil [15]): inactive
- inhibition (Neutrophil [16]): inactive
- inhibition (Neutrophil [17]): inactive
- inhibition (Mus musculus [18]): Active
- inhibition (Mus musculus [19]): Active
- inhibition (Mus musculus [20]): Active
- inhibition (Mus musculus [21]): Active
- inhibition (Neutrophil [22]): inactive
- inhibition (Neutrophil [23]): Active
- inhibition (Neutrophil [24]): Active
- inhibition (Neutrophil [25]): Active
- inhibition (Mus musculus [26]): Active
- inhibition (Mus musculus [27]): Active
- inhibition (Neutrophil [28]): Active
- inhibition (Mus musculus [29]): inactive
- inhibition (Neutrophil [30]): Active
- inhibition (Mus musculus [31]): Active
